Test results published in BindingDB's records for doi:10.1021/jm501787c (Duquesne University, 2015).

Legend:
[1] = Binding affinity to human RFC expressed in Chinese hamster PC43-10 cells assessed as cell growth inhibition after 96 hrs by CellTiter-Blue assay
[2] = Binding affinity to human FRalpha expressed in Chinese hamster RT16 cells assessed as cell growth inhibition after 96 hrs by CellTiter-Blue assay
[3] = Binding affinity to human PCFT expressed in Chinese hamster R2/PCFT4 cells assessed as cell growth inhibition after 96 hrs by CellTiter-Blue assay

IC50 [1]	IC50 [2]	IC50 [3]	SMILES
60 nM	550 nM	80 nM	Nc1nc2[nH]cc(CCc3ccc(C(=O)N[C@@H](CCC(=O)O)C(=O)O)s3)c2c(=O)[nH]1
116 nM	109 nM	312 nM	Nc1nc2[nH]cc(CCCc3ccc(C(=O)N[C@@H](CCC(=O)O)C(=O)O)s3)c2c(=O)[nH]1
> 1000 nM	> 1000 nM	> 1000 nM	Nc1nc2[nH]cc(Cc3ccc(C(=O)N[C@@H](CCC(=O)O)C(=O)O)s3)c2c(=O)[nH]1
> 1000 nM	1.8 nM	–	Nc1nc2[nH]c(CCCCc3ccc(C(=O)N[C@@H](CCC(=O)O)C(=O)O)s3)cc2c(=O)[nH]1 [(S)-2-({5-[4-(2-Amino-4-oxo-4,7-dihydro-3H-pyrrolo[2,3-d]-pyrimidin-6-yl)-butyl]-thiophene-2-carbonyl}-amino)-pentanedioicAcid]
> 1000 nM	> 1000 nM	> 1000 nM	Nc1nc2[nH]cc(CCCCCCc3ccc(C(=O)N[C@@H](CCC(=O)O)C(=O)O)s3)c2c(=O)[nH]1
243 nM	46 nM	57 nM	Nc1nc2[nH]cc(CCCCCc3ccc(C(=O)N[C@@H](CCC(=O)O)C(=O)O)s3)c2c(=O)[nH]1
38 nM	49 nM	141 nM	Nc1nc2[nH]cc(CCCCc3ccc(C(=O)N[C@@H](CCC(=O)O)C(=O)O)s3)c2c(=O)[nH]1
